Reference: patent US20060258726A1, “1,5-Disubstituted imidazolidin-2-one derivatives for use as ep4 receptor agonists in the treatment of eye and bone diseases” (priority 2002, published 2006)

Assays:
EP2 mRNA [1] = experiment: EP2 mRNA in RP-1 periosteal cells (Northern blot); format: cell-based, rat; details: RP-1 cells
Procedure: (§1) RP-1 periosteal cells are spontaneously immortalized from primary cultures of periosteal cells from tibae of 4-week old Sprague-Dawley rats and are cultured in DMEM (BRL, Gaithersburg, Md.) with 10% fetal bovine serum (JRH Biosciences, Lenexa, Kans.).
(§2) Total RNA is extracted from the tibial metaphysis or diaphysis and calvaria using a guanidinium isothiocyanate-phenol-chloroform method after pulverizing frozen bone samples by a tissue homogenizer. See P. Chomczynski et al., Single-step method of RNA isolation by acid guanlidium thiocyanate-phenol-chloroform extraction., Analyt Biochem, 162, 156-159 (1987), which is incorporated by reference herein in its entirety. RNA samples ([…]) are separated on 0.9% agarose/formaldehyde gels and transferred onto nylon membranes (Boehringer Mannheim, Germany). Membranes are prehybridized in Hybrisol I (Oncor, Gaithersburg, Md.) and 0.5 mg/ml sonicated salmon sperm DNA (Boehringer) at 42° C. for 3 hours and are hybridized at 42° C. with rat EP2 and mouse EP4 cDNA probes labeled with [^32P]-dCTP (Amersham, Buckinghamshire, UK) by random priming using the rediprime kit (Amersham). After hybridization, membranes are washed 4 times in 2×SSC+0.1% SDS at room temperature for a total of 1 hour and once with 0.2×SSC+0.1% SDS at 55° C. for 1 hour and then exposed to Kodak XAR 2 film at −70° C. using intensifying screens. […]

intracellular cAMP = experiment: Effect of PGE2 on intracellular cAMP in osteoblastic cell lines; format: cell-based, rat
EP4 mRNA [2] = experiment: EP4 mRNA levels in bone-derived cell lines (Northern blot); format: cell-based, rat
Procedure: as §1
RCT-1 and RCT-3 are clonal cell lines immortalized by SV-40 large T antigen from cells released from fetal rat calvair by a cmbination collagenase/hyaluronidase digestion. RCT-1 cells, derived from cells released during the first 10 minutes of digestion (fraction I), are cultured in RPMI 1640 medium (BRL) with 10% fetal bovine serum and 0.4 mg/ml G418 (BRL). These cells differentiate and express osteoblastic features upon retinoic acid treatment. RCT-3 cells, immortalized from osteoblast-enriched fraction III cells, are cultured in F-12 medium (BRL) with 5% Fetal bovine serum and 0.4 mg/ml G418. TRAB-11 cells are also immortalized by SV40 large T antigen from adult rat tibia and are cultured in RPML 1640 medium with 10% FBS and 0.4 mg/ml G418. ROS 17/2.8 rat osteosarcoma cells are cultured in F-12 containing 5% FBS. Osteoblast-enriched (fraction E) primary fetal rat calvaria cells are obtained by collagenase/hyaluronidase digestion of calvariae of 19 day-old rat fetuses. See Rodan et al., Growth stimulation of rat calvaria osteoblastic cells by acidic FGF, Endocrinology, 121, 1919-1923 (1987), which is incorporated by reference herein in its entirety. Cells are released during 30-50 minutes digestion (fraction E) and are cultured in F-12 medium containing 5% […].
(§3) Total RNA is extracted from the tibial metaphysis or diaphysis and calvaria using a guanidinium isothiocyanate-phenol-chloroform method after pulverizing frozen bone samples by a tissue homogenizer. See P. Chomczynski et al., Single-step method of RNA isolation by acid guanlidium thiocyanate-phenol-chloroform extraction., Analyt Biochem, 162, 156-159 (1987), which is incorporated by reference herein in its entirety. RNA samples ([…]) are separated on 0.9% agarose/formaldehyde gels and transferred onto nylon membranes (Boehringer Mannheim, Germany). […]

EP2 mRNA [3] = experiment: EP2 mRNA in bone tissue after systemic injection (Northern blot); format: in vivo, rat
Procedure: (§4) For mRNA localization experiments, 5-week old Sprague-Dawley rats (Charles River) are euthanized by CO2, their tibiae and calvariae are excised, cleaned of soft tissues and frozen immediately in liquid nitrogen. For EP4 regulation experiments, 6-week old rats are given a single injection of either vehicle (7% ethanol in sterile water) or an anabolic dose of PGE2 (Cayman Chemical, Ann Arbor, Mich., 3-6 mg/kg in the same vehicle) intraperitoneally. Animals are euthanized at several time points post-injection and their tibiae and calvariae, as well as samples from lung and kidney tissues are frozen in liquid nitrogen.
as §3

EP4 mRNA [4] = experiment: EP4 mRNA levels in bone tissue after systemic injection (Northern blot); format: in vivo, rat; details: tibial diaphysis, 3-6 mg/Kg systemic
Description: For mRNA localization experiments, 5-week old Sprague-Dawley rats (Charles River) are euthanized by CO2, their tibiae and calvariae are excised, cleaned of soft tissues and frozen immediately in liquid nitrogen. […] Animals are euthanized at several time points post-injection and their tibiae and calvariae, as well as samples from lung and kidney tissues are frozen in liquid nitrogen.
as §2, with “(Amersham).” for “(Amersham). After hybridization, membranes are washed 4 times in 2×SSC+0.1% SDS at room temperature for a total of 1 hour and once with 0.2×SSC+0.1% SDS at 55° C. for 1 hour and then exposed to Kodak XAR 2 film at −70° C. using intensifying screens.”

EP4 mRNA [5] = experiment: Localization of EP4 mRNA expression in bone tissue by in situ hybridization; format: in vivo; details: single anabolic dose, rat tibia
Procedure: as §4
Frozen tibiae are sectioned coronally at […] thickness and sections are mounted on charged slides (Probe On Plus, Fisher Scientific, Springfield, N.J.) and are kept at −70° C. until hybridization. cRNA probes are labeled with ^35S-UTPgS (ICN, Costa Mesa, Calif.) using a Riboprobe II kit (Promega Madison, Wis.). Hybridization is performed overnight at 50° C. […]
In situ hybridization is used in order to localize cells expressing EP4 in bone. In control experiment (vehicle-injected) rats, low expression of EP4 is detected in bone marrow cells. […]

CCCCC[C@H](O)/C=C/[C@H]1[C@H](O)CC(=O)[C@@H]1C/C=C\CCCC(=O)O [PGE2]
EP2 mRNA expression before or after treatment (EP2 mRNA [1]): not expressed
effect on intracellular cAMP (intracellular cAMP; RCT-3 cells): markedly induced
effect on intracellular cAMP (intracellular cAMP; ROS 17/2.8 rat osteosarcoma cells): no effect
effect on intracellular cAMP (intracellular cAMP; TRAB-11 cells): markedly induced
effect on EP4 mRNA levels (EP4 mRNA [2]; RCT-3 cells): no effect
effect on EP4 mRNA levels (EP4 mRNA [2]; RP-1 periosteal cells, 10^−6 M): rapidly increases
time of peak EP4 mRNA level after treatment (EP4 mRNA [2]; RP-1 periosteal cells, 10^−6 M): 2 h
induction of EP2 mRNA (EP2 mRNA [3]): does not induce
time of peak EP4 mRNA level after injection (EP4 mRNA [4]): 2 h
effect on EP4 mRNA levels (EP4 mRNA [4]; five-week-old male rats): rapidly increased
expression of EP4 in bone marrow cells (EP4 mRNA [5]): increased
